Values joined by “and” are separate entries in the source; they are usually repeats but may differ in a detail not shown here. Equal values may be shown once. “Also recorded” adds a separate entry of the source. Read-outs that look alike come from different tables or passages of the source.
Experiments:
Format in all cases: cell-based, Plasmodium falciparum
Dd2-Polδ parasites = experiment: P. falciparum proliferation assay (72 h, fluorescent DNA-intercalating dye)
Experimental: (§1) For experiments with all other parasites, the effects of compounds of interest on parasite proliferation was measured in 96-well plates containing serial dilutions of the compounds in culture medium, with a fluorescent DNA-intercalating dye used to detect surviving parasites. The assays were initiated with erythrocytes infected with predominantly ring-stage parasites, and the starting parasitaemia and haematocrit were both 1%.

[1] = test system: Dd2-Polδ-PfATP4^G358S parasites; experiment: as above
Experimental: as §1

[2] = test system: MMV665949-selected Culture 1 (from Dd2-Polδ; not cloned); experiment: as above; details: n = 4
Experimental: as §1, with “1%. […] Fluorescence was measured using a FLUOstar OPTIMA plate reader (BMG LABTECH), with OPTIMA version 2.20R2 and MARS Data Analysis Software version 3.01 R2 (BMG LABTECH).” for “1%.”

NF54^WT parasites = experiment: microbe, parasite or virus in culture
Experimental: (§2) For the NF54-based lines and Dd2-B2-PfATP4^G358S and its parent, assays were initiated with cultures containing predominantly ring-stage parasites with a parasitaemia of 0.3% and a haematocrit of 1%. All assays using NF54 were performed in culture media containing 10% O + human serum. The duration of the assays was 72 h and the concentration of DMSO was <0.5% (v/v). Serial dilutions of the test compounds were performed using a Tecan D300e digital dispenser, with parasite cultures added manually. Parasite survival was assessed by flow cytometry on an Intellicyt iQue3 (Essen Bioscience), with 1× SYBR Green I (Invitrogen) and 200 nM MitoTracker Deep Red FM (Invitrogen) used to stain the nucleus and the mitochondria in live parasites, respectively. The gating strategy used to quantify parasite survival, performed using FlowJo version 10 (FlowJo LLC.), is illustrated in Supplementary Fig. 9. IC50 and IC90 values were calculated by linear interpolation of the dose-response data.

NF54^CTL parasites = experiment: P. falciparum proliferation assay (72 h, flow cytometry, SYBR Green I/MitoTracker)
Experimental: as §2

NF54^G358S-1 parasites = experiment: as above; details: for FC (IC50) / FC (IC90): NF54G358S-1 compared to NF54WT
Experimental: as §2

NF54^G358S-2 parasites = experiment: as above
Experimental: as §2

[3] = test system: parasite lines with a G358S mutation in PfATP4; experiment: P. falciparum proliferation assays, statements on all lines with the G358S mutation; details: G358S lines vs PfATP4 wild-type controls
Experimental: as §2, with “Two types of parasite proliferation assays were employed in this study, with both yielding highly consistent results. For” for “For”
as §1, with “1%. […] Fluorescence was measured using a FLUOstar OPTIMA plate reader (BMG LABTECH), with OPTIMA version 2.20R2 and MARS Data Analysis Software version 3.01 R2 (BMG LABTECH).” for “1%.”

[4] = test system: gene-edited NF54 lines (NF54^CTL, NF54^G358S-1, NF54^G358S-2); experiment: P. falciparum proliferation assay, statements on several edited NF54 lines; details: all edited NF54 lines, including NF54CTL, vs NF54WT
Experimental: as §2, with “Two types of parasite proliferation assays were employed in this study, with both yielding highly consistent results. For” for “For”

[5] = NF54WT parasites, individual experiments, read-out: IC50 values
[6] = NF54WT parasites, individual experiments, read-out: IC90 values
[7] = NF54CTL parasites, individual experiments, read-out: IC50 values
[8] = NF54G358S-1 parasites, individual experiments, read-out: IC50 values
[9] = NF54G358S-1 parasites, individual experiments, read-out: IC90 values
[10] = NF54G358S-2 parasites, individual experiments, read-out: IC50 values
[11] = NF54G358S-2 parasites, individual experiments, read-out: IC90 values

## Oc1ccc(C(=C(Cl)Cl)c2ccc(O)cc2)cc1 [MMV665949]
Dd2-Polδ parasites; Dd2-Polδ, Supplementary Table 1, Set 2, read-out: Mean IC50 value ± SEM for growth inhibition
  IC50: 4.27 µM
Dd2-Polδ parasites; parental Dd2-Polδ, paired with MMV665949-selected Culture 1, n = 4, read-out: IC50
  IC50: 4.3 ± 0.7 µM
[1]; Dd2-Polδ-PfATP4G358S vs Dd2-Polδ, mean ± SEM
  IC50 fold higher than that of Dd2-Polδ parent: no significant change
[1]; Dd2-Polδ-PfATP4G358S, Supplementary Table 1, Set 2, read-out: Mean IC50 value ± SEM for growth inhibition
  IC50: 4.87 ± 0.88 µM
[2]; MMV665949-selected Culture 1, paired experiments
  IC50 fold higher than for parental Dd2-Polδ: 10.7 ± 2.0 fold
[2]; MMV665949-selected Culture 1, mean ± SEM, read-out: IC50
  IC50: 44 ± 7 µM

## CCNCc1cc(Nc2ccnc3cc(Cl)ccc23)ccc1O [Monodesethyl‐amodiaquine]
NF54^WT parasites; [5]
  IC50: 10.5 nM
NF54^WT parasites; [6]
  IC90: 7.38 nM and 7.32 nM and 7.45 nM and 14.6 nM
NF54^WT parasites; NF54WT parasites, mean of the experiments, read-out: IC50 values, MEAN
  IC50: 6.9 nM
NF54^WT parasites; NF54WT parasites, mean of the experiments, read-out: IC90 values, MEAN
  IC90: 9.2 nM
NF54^WT parasites; NF54WT, reference line
  FC (IC50): 1.0 fold
  FC (IC90): 1.0 fold
  FC (Mean IC90/IC50): 1.0 fold
NF54^WT parasites; read-out: IC50 values
  IC50: 5.7 nM
NF54^CTL parasites; NF54CTL compared to NF54WT
  FC (IC50): 1.0 fold
  FC (IC90): 1.5 fold
  FC (Mean IC90/IC50): 1.5 fold
NF54^CTL parasites; [7]
  IC50: 6.5 nM and 6.8 nM and 7.4 nM and 7.2 nM
NF54^CTL parasites; NF54CTL parasites, mean of the experiments, read-out: IC50 values, MEAN
  IC50: 7 nM
NF54^G358S-1 parasites; NF54G358S-1, 10% human serum, read-out: IC50 ± SEM
  IC50: 7.6 ± 0.8 nM
NF54^G358S-1 parasites
  FC (IC50): 1.1 fold
  FC (IC90): 1.4 fold
NF54^G358S-1 parasites; [8]
  IC50: 5.6 nM and 7.6 nM and 8.1 nM and 9.2 nM
NF54^G358S-1 parasites; [9]
  IC90: 7.37 nM and 14 nM (2×) and 14.3 nM
NF54^G358S-1 parasites; NF54G358S-1 parasites, mean of the experiments, read-out: IC50 values, MEAN
  IC50: 7.6 nM
NF54^G358S-1 parasites; NF54G358S-1 parasites, mean of the experiments, read-out: IC90 values, MEAN
  IC90: 12.4 nM
NF54^G358S-2 parasites; NF54G358S-2 compared to NF54WT
  FC (IC50): 1.0 fold
  FC (IC90): 1.3 fold
  FC (Mean IC90/IC50): 1.3 fold
NF54^G358S-2 parasites; [10]
  IC50: 5.9 nM and 7.4 nM and 7 nM
NF54^G358S-2 parasites; [11]
  IC90: 7.97 nM and 13.8 nM and 13.5 nM
NF54^G358S-2 parasites; NF54G358S-2 parasites, mean of the experiments, read-out: IC50 values, MEAN
  IC50: 6.8 nM
NF54^G358S-2 parasites; NF54G358S-2 parasites, mean of the experiments, read-out: IC90 values, MEAN
  IC90: 12.2 nM
[3]
  effect of the G358S mutation in PfATP4 on parasite susceptibility: no effect

## COc1nc(C(C)C)ccc1-c1cnc2sc(N3CCC(O)(CN)CC3)nn12 [INE963]
NF54^WT parasites; [5]
  IC50: 0.63 nM and 0.74 nM and 1.17 nM
NF54^WT parasites; [6]
  IC90: 1.68 nM and 1.36 nM and 1.75 nM and 2.98 nM
NF54^WT parasites; NF54WT, reference line
  FC (IC50): 1.0 fold
  FC (IC90): 1.0 fold
NF54^WT parasites; Plasmodium falciparum, NF54, NF54WT parasites, individual experiments, read-out: IC50 values
  IC50: 0.7 nM
NF54^WT parasites; Plasmodium falciparum, NF54, NF54WT parasites, mean of the experiments, read-out: IC50 values, MEAN
  IC50: 0.81 nM
NF54^WT parasites; Plasmodium falciparum, NF54, NF54WT parasites, mean of the experiments, read-out: IC90 values, MEAN
  IC90: 1.9 nM
NF54^WT parasites; Plasmodium falciparum, NF54, NF54WT, 10% human serum, read-out: IC50 ± SEM
  IC50: 0.8 ± 0.1 nM
NF54^CTL parasites; NF54CTL compared to NF54WT
  FC (IC50): 1.5 fold
  FC (IC90): 1.3 fold
NF54^CTL parasites; [7]
  IC50: 1.15 nM and 1.14 nM and 1.42 nM
NF54^CTL parasites; NF54CTL parasites, individual experiments, read-out: IC90 values
  IC90: 2.46 nM and 2.4 nM and 3.34 nM
NF54^CTL parasites; Plasmodium falciparum, NF54, NF54CTL parasites, individual experiments, read-out: IC50 values
  IC50: 1.02 nM
NF54^CTL parasites; Plasmodium falciparum, NF54, NF54CTL parasites, individual experiments, read-out: IC90 values
  IC90: 1.87 nM
NF54^CTL parasites; Plasmodium falciparum, NF54, NF54CTL parasites, mean of the experiments, read-out: IC50 values, MEAN
  IC50: 1.18 nM
NF54^CTL parasites; Plasmodium falciparum, NF54, NF54CTL parasites, mean of the experiments, read-out: IC90 values, MEAN
  IC90: 2.5 nM
NF54^CTL parasites; Plasmodium falciparum, NF54, NF54CTL, 10% human serum, read-out: IC50 ± SEM
  IC50: 1.2 ± 0.1 nM
NF54^G358S-1 parasites
  FC (IC50): 1.4 fold
  FC (IC90): 1.4 fold
NF54^G358S-1 parasites; [8]
  IC50: 1.09 nM and 1.1 nM and 1.41 nM
NF54^G358S-1 parasites; [9]
  IC90: 2.82 nM and 2.85 nM and 3.37 nM
NF54^G358S-1 parasites; Plasmodium falciparum, NF54, NF54G358S-1 parasites, individual experiments, read-out: IC50 values
  IC50: 0.91 nM
NF54^G358S-1 parasites; Plasmodium falciparum, NF54, NF54G358S-1 parasites, individual experiments, read-out: IC90 values
  IC90: 1.87 nM
NF54^G358S-1 parasites; Plasmodium falciparum, NF54, NF54G358S-1 parasites, mean of the experiments, read-out: IC50 values, MEAN
  IC50: 1.13 nM
NF54^G358S-1 parasites; Plasmodium falciparum, NF54, NF54G358S-1 parasites, mean of the experiments, read-out: IC90 values, MEAN
  IC90: 2.7 nM
NF54^G358S-2 parasites; NF54G358S-2 compared to NF54WT
  FC (IC50): 1.4 fold
  FC (IC90): 1.4 fold
NF54^G358S-2 parasites; [10]
  IC50: 1.11 nM and 0.93 nM and 1.44 nM
NF54^G358S-2 parasites; [11]
  IC90: 2.37 nM and 2.77 nM and 3.43 nM
NF54^G358S-2 parasites; Plasmodium falciparum, NF54, NF54G358S-2 parasites, individual experiments, read-out: IC50 values
  IC50: 1.1 nM
NF54^G358S-2 parasites; Plasmodium falciparum, NF54, NF54G358S-2 parasites, individual experiments, read-out: IC90 values
  IC90: 2.11 nM
NF54^G358S-2 parasites; Plasmodium falciparum, NF54, NF54G358S-2 parasites, mean of the experiments, read-out: IC50 values, MEAN
  IC50: 1.15 nM
NF54^G358S-2 parasites; Plasmodium falciparum, NF54, NF54G358S-2 parasites, mean of the experiments, read-out: IC90 values, MEAN
  IC90: 2.7 nM
[4]
  fold increase in IC50 value: 1.4-1.5 fold
[3]
  effect of the G358S mutation in PfATP4 on parasite susceptibility: no impact; also recorded: no effect

— paper PMC9525273 (Nature Communications, 2022)
